Experimental data from ChEMBL document CHEMBL1201862, “PubChem BioAssay data set” (2004).
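48-hour exposure; five concentrations; linearly interpolated endpoints. At the GI50, growth is halved.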 Active and inactive are the calls of the source. Rule as the data show it: active = GI50 up to about 1.1 µM and inactive = higher. Peptide text beside a SMILES is read from it. * marks the point of attachment. Boc = CC(C)(C)OC(=O)*

Experiments:
Assay in all cases: NCI anticancer screen, dose series, 48 h
A498 = tested on: A498
OVCAR-8 = tested on: OVCAR-8
SR = tested on: SR
EKVX = tested on: EKVX
COLO 205 = tested on: COLO 205
HT-29 = tested on: HT-29
OVCAR-3 = tested on: OVCAR-3
IGROV-1 = tested on: IGROV-1
K562 = tested on: K562
TK-10 = tested on: TK-10
PC-3 = tested on: PC-3
OVCAR-5 = tested on: OVCAR-5
SF-295 = tested on: SF-295
HOP-62 = tested on: HOP-62
NCI-H522 = tested on: NCI-H522
HCT-116 = tested on: HCT-116
MCF7 = tested on: MCF7
UACC-62 = tested on: UACC-62
NCI-H23 = tested on: NCI-H23
HOP-92 = tested on: HOP-92

## COc1ccc2c(-c3ccc(OCCN(C)C)cc3)c(Oc3ccc(Cl)cc3)c(=O)oc2c1
A498
  GI50: 14 µM (inactive)
OVCAR-8
  GI50: 8.36 µM (inactive)
SR
  GI50: 2 µM (inactive)
EKVX
  GI50: 11.5 µM (inactive)
COLO 205
  GI50: 2.23 µM (inactive)
HT-29
  GI50: 6.56 µM (inactive)
OVCAR-3
  GI50: 6.17 µM (inactive)
IGROV-1
  GI50: 3.37 µM (inactive)
K562
  GI50: 2.54 µM (inactive)
TK-10
  GI50: 7.82 µM (inactive)
PC-3
  GI50: 4.98 µM (inactive)
OVCAR-5
  GI50: 15.6 µM (inactive)
SF-295
  GI50: 2.12 µM (inactive)
HOP-62
  GI50: 4.21 µM (inactive)
NCI-H522
  GI50: 4.07 µM (inactive)
HCT-116
  GI50: 2.63 µM (inactive)
MCF7
  GI50: 2.52 µM (inactive)
UACC-62
  GI50: 2.75 µM (inactive)
NCI-H23
  GI50: 14.5 µM (inactive)
HOP-92
  GI50: 5.5 µM (inactive)

## Cc1ccc(Nc2c(C#N)[n+]([O-])c3cc(Cl)ccc3[n+]2[O-])cc1
A498
  GI50: > 100 µM (inactive)
OVCAR-8
  GI50: 11.7 µM (inactive)
SR
  GI50: 7.98 µM (inactive)
EKVX
  GI50: > 81.3 µM (inactive)
COLO 205
  GI50: 18.4 µM (inactive)
HT-29
  GI50: 11.2 µM (inactive)
OVCAR-3
  GI50: 4.13 µM (inactive)
IGROV-1
  GI50: 15.5 µM (inactive)
K562
  GI50: 11 µM (inactive)
TK-10
  GI50: 29 µM (inactive)
PC-3
  GI50: 9.66 µM (inactive)
OVCAR-5
  GI50: > 100 µM (inactive)
SF-295
  GI50: 13.6 µM (inactive)
HOP-62
  GI50: 43.1 µM (inactive)
NCI-H522
  GI50: 11.4 µM (inactive)
HCT-116
  GI50: 8.79 µM (inactive)
MCF7
  GI50: 15.3 µM (inactive)
UACC-62
  GI50: 20.7 µM (inactive)
NCI-H23
  GI50: 40.5 µM (inactive)
HOP-92
  GI50: > 100 µM (inactive)

## COc1ccc(C(=O)/C=C/c2ccc(OCC(=O)N3CCN(c4ccccc4)CC3)cc2)cc1
A498
  GI50: 55.1 µM (inactive)
OVCAR-8
  GI50: 71 µM (inactive)
SR
  GI50: 18.6 µM (inactive)
EKVX
  GI50: > 70.5 µM (inactive)
COLO 205
  GI50: > 64.6 µM (inactive)
HT-29
  GI50: > 100 µM (inactive)
OVCAR-3
  GI50: 74.3 µM (inactive)
IGROV-1
  GI50: 34 µM (inactive)
K562
  GI50: > 60.5 µM (inactive)
TK-10
  GI50: 44.7 µM (inactive)
PC-3
  GI50: 45.5 µM (inactive)
OVCAR-5
  GI50: > 100 µM (inactive)
SF-295
  GI50: 32.6 µM (inactive)
HOP-62
  GI50: 39.1 µM (inactive)
NCI-H522
  GI50: 17.7 µM (inactive)
HCT-116
  GI50: 64.6 µM (inactive)
MCF7
  GI50: 78.2 µM (inactive)
UACC-62
  GI50: 75.2 µM (inactive)
NCI-H23
  GI50: 38.6 µM (inactive)
HOP-92
  GI50: 14.2 µM (inactive)

## O=C1Cc2cn[nH]c2-c2ccccc2N1
A498
  GI50: > 94.4 µM (inactive)
OVCAR-8
  GI50: 35 µM (inactive)
SR
  GI50: 21.7 µM (inactive)
EKVX
  GI50: 34.7 µM (inactive)
COLO 205
  GI50: 29 µM (inactive)
HT-29
  GI50: 34.9 µM (inactive)
OVCAR-3
  GI50: 16.1 µM (inactive)
IGROV-1
  GI50: 39.2 µM (inactive)
K562
  GI50: 21.9 µM (inactive)
TK-10
  GI50: 30.2 µM (inactive)
PC-3
  GI50: 41.2 µM (inactive)
OVCAR-5
  GI50: 30.3 µM (inactive)
SF-295
  GI50: 61 µM (inactive)
HOP-62
  GI50: 32.1 µM (inactive)
NCI-H522
  GI50: 21.4 µM (inactive)
HCT-116
  GI50: 26.5 µM (inactive)
MCF7
  GI50: 39 µM (inactive)
UACC-62
  GI50: 22.9 µM (inactive)
NCI-H23
  GI50: 29.9 µM (inactive)
HOP-92
  GI50: 8.45 µM (inactive)

## CC(NC(=O)OC(C)(C)C)C(=O)NC(Cc1ccccc1)C(=O)NCC(=O)O (stereo not drawn) (Boc-Ala-Phe-Gly-OH; configuration not given here)
A498
  GI50: > 100 µM (inactive)
OVCAR-8
  GI50: > 100 µM (inactive)
SR
  GI50: > 100 µM (inactive)
EKVX
  GI50: > 100 µM (inactive)
COLO 205
  GI50: > 100 µM (inactive)
HT-29
  GI50: > 100 µM (inactive)
OVCAR-3
  GI50: > 100 µM (inactive)
IGROV-1
  GI50: > 100 µM (inactive)
K562
  GI50: > 100 µM (inactive)
TK-10
  GI50: > 100 µM (inactive)
PC-3
  GI50: > 100 µM (inactive)
OVCAR-5
  GI50: > 100 µM (inactive)
SF-295
  GI50: > 100 µM (inactive)
HOP-62
  GI50: > 100 µM (inactive)
NCI-H522
  GI50: > 100 µM (inactive)
HCT-116
  GI50: > 100 µM (inactive)
MCF7
  GI50: > 100 µM (inactive)
UACC-62
  GI50: > 100 µM (inactive)
NCI-H23
  GI50: > 100 µM (inactive)
HOP-92
  GI50: > 100 µM (inactive)

## C/C(=C\c1csc(C)n1)[C@@H]1C[C@@H]2O[C@]2(C)CCC[C@H](C)[C@H](O)[C@@H](C)C(=O)C(C)(C)[C@@H](O)CC(=O)O1 [PATUPILONE]
A498
  GI50: < 0.0001 µM (active)
OVCAR-8
  GI50: < 0.0001 µM (active)
SR
  GI50: < 0.0001 µM (active)
EKVX
  GI50: < 0.0001 µM (active)
COLO 205
  GI50: < 0.0001 µM (active)
HT-29
  GI50: < 0.0001 µM (active)
OVCAR-3
  GI50: < 0.0001 µM (active)
IGROV-1
  GI50: < 0.0001 µM (active)
K562
  GI50: < 0.0001 µM (active)
TK-10
  GI50: < 0.0001 µM (active)
PC-3
  GI50: < 0.0001 µM (active)
OVCAR-5
  GI50: < 0.0001 µM (active)
SF-295
  GI50: < 0.0001 µM (active)
HOP-62
  GI50: < 0.0001 µM (active)
NCI-H522
  GI50: < 0.0001 µM (active)
HCT-116
  GI50: < 0.0001 µM (active)
MCF7
  GI50: < 0.0001 µM (active)
UACC-62
  GI50: < 0.0001 µM (active)
NCI-H23
  GI50: < 0.0001 µM (active)
HOP-92
  GI50: < 0.0001 µM (active)
